Source: patent publication US9212168B2 (priority 2011, dated 2015)

Test system: HCV genotype 1a replicon
Experiment: HCV genotype 1a replicon assay (NS3 protease activity readout)
Format: cell-based, hepatitis C virus
Settings: for Genotype 1a: HCV genotype 1a replicon; for EC50: Hepatitis C virus, read-out: Genotype 1a, HCV genotype 1a replicon
In short: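 Genotype 1a subgenomic replicon cells (APC89, Huh7.5) were treated with compound dose-responses in G418-free medium, 0.5% DMSO final, for 48 or 72 hours at 37° C. Lysate NS3/4a protease activity measured with 15 μM FRET substrate, 20 min at 37° C (ex 340/em 509 nm); EC50 by 4-parameter fit.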

COC(=O)N[C@H](C(=O)N1C[C@@H](C)C[C@H]1c1nc(-c2ccc(-c3ccc(NC(=O)c4ccc(N5CCN(C(=O)C6CC6)C[C@H]5C)nc4)cc3C(F)(F)F)cc2)c[nH]1)C(C)C [Example 1-65]
Genotype 1a: C (C represents pEC50 between and 9 and about 10, (EC50 between 1 nM and 0.1 nM))

COC(=O)N[C@H](C(=O)N1C[C@@H](C)C[C@H]1c1nc(-c2ccc(-c3cc(Cl)c(NC(=O)c4ccc(N5CCN(C(=O)C(O)C(F)(F)F)C[C@H]5C)nc4)cc3OC(F)(F)F)cc2)c[nH]1)C(C)C (stereo partly shown) [Example 1-97]
Genotype 1a: C (C represents pEC50 between and 9 and about 10, (EC50 between 1 nM and 0.1 nM))

CNC(=O)N1CCC[C@@]1(C)C(=O)N1CCN(c2ccc(C(=O)Nc3cc(OC(F)(F)F)c(-c4ccc(-c5c[nH]c([C@@H]6C[C@H](C)CN6C(=O)[C@@H](NC(=O)OC)C(C)C)n5)cc4)cc3F)cn2)[C@H](C)C1 [Example 1-28]
Genotype 1a: D (D represents pEC50>10 (EC50<0.1 nM))

COC(=O)N[C@H](C(=O)N1C[C@@H](C)C[C@H]1c1nc(-c2ccc(-c3cc(Cl)c(NC(=O)c4ccc(N5CCN(C(=O)C(C)(C)C)C(CO)C5)nc4)cc3OC(F)(F)F)cc2)c[nH]1)C(C)C (stereo partly shown) [Example 14-1]
EC50: 0.1 to 1 nM

COC[C@H]1C[C@@H](c2nc(-c3ccc(-c4cc(Cl)c(NC(=O)c5ccc(N6CCN(C(=O)C(C)(C)C)C[C@H]6C)nc5)cc4OC(F)(F)F)cc3)c[nH]2)N(C(=O)[C@@H](NC(=O)OC)C(C)C)C1 [Example 15-13]
EC50: < 0.1 nM

COC(=O)N[C@H](C(=O)N1C[C@@H](OC)C[C@H]1c1nc(-c2ccc(-c3cc(Cl)c(NC(=O)c4ccc(N5CCN(C(=O)C(C)(C)C(=O)O)C[C@H]5C)nc4)cc3OC(F)(F)F)cc2)c[nH]1)C1CCOCC1 [Example 28-23]
Genotype 1a: C (C represents pEC50 between and 9 and about 10, (EC50 between 1 nM and 0.1 nM))

COC(=O)N[C@H](C(=O)N1C[C@@H](C)C[C@H]1c1nc(-c2ccc(-c3ccc(C(=O)Nc4ccc(N5CCN(C(=O)[C@H]6CC6(C)C)C[C@H]5C)nc4)cc3OC(F)(F)F)cc2)c(Cl)[nH]1)C(C)C [Example 4-29]
Genotype 1a: D (D represents pEC50>10 (EC50<0.1 nM))

COC(=O)N[C@H](C(=O)N1C[C@@H](N(C)C)C[C@H]1c1nc(-c2ccc(-c3cc(Cl)c(NC(=O)c4ccc(N5CCN(C(=O)C(C)(C)C)C[C@H]5C)nc4)cc3OC(F)(F)F)cc2)c[nH]1)C(C)C [Example 2-7]
Genotype 1a: C (C represents pEC50 between and 9 and about 10, (EC50 between 1 nM and 0.1 nM))

COC(=O)N[C@H](C(=O)N1C[C@@H](C)C[C@H]1c1nc(-c2ccc(-c3ccc(C(=O)Nc4ccc(N5CCN(C(=O)C6CC6(Cl)Cl)C[C@H]5C)nc4)cc3OC(F)(F)F)cc2)c[nH]1)C(C)C (stereo partly shown) [Example 4-32]
Genotype 1a: C (C represents pEC50 between and 9 and about 10, (EC50 between 1 nM and 0.1 nM))

COC(=O)N[C@H](C(=O)N1C[C@@H](OC)C[C@H]1c1nc(-c2ccc(-c3cc(Cl)c(NC(=O)c4ccc(N5C[C@H](C)N(C(=O)C(C)(C)CO)C[C@H]5C)nc4)cc3OC(F)(F)F)cc2)c[nH]1)C1CCOCC1 [Example 28-5]
Genotype 1a: D (D represents pEC50>10 (EC50<0.1 nM))

COC(=O)N[C@H](C(=O)N1C[C@@H](C)C[C@H]1c1nc(-c2ccc(-c3cc(Cl)c(NC(=O)c4ccc(N5CCN(C(=O)C6(C)COC6)C[C@H]5C)nc4)cc3OC(F)(F)F)cc2)c[nH]1)C(C)C [Example 12-48]
EC50: < 0.1 nM

COC(=O)N[C@H](C(=O)N1C[C@@H](OC)C[C@H]1c1nc(-c2ccc(-c3cc(Cl)c(C(=O)Nc4ccc(N5CCN(C(=O)C(C)(C)CO)C[C@H]5C)nc4)cc3OC(F)(F)F)cc2)c[nH]1)C1CCOCC1 [Example 22-17]
Genotype 1a: D (D represents pEC50>10 (EC50<0.1 nM))

COC(=O)N[C@H](C(=O)N1C[C@@H](C)C[C@H]1c1nc(-c2ccc(-c3cc(Cl)c(NC(=O)c4ccc(N5CCN(C(=O)NC(C)C)C[C@H]5C)nc4)cc3OC(F)(F)F)cc2)c[nH]1)C(C)C [Example 1-72]
Genotype 1a: D (D represents pEC50>10 (EC50<0.1 nM))

COC(=O)N[C@H](C(=O)N1C[C@@H](C)C[C@H]1c1nc(-c2ccc(-c3cc(Cl)c(NC(=O)c4ccc(N5CCN(C(=O)C(C)(C)C)C[C@H]5C)nc4)cc3OC(F)(F)F)cc2)c[nH]1)[C@H](C)OC [Example 13-8]
EC50: < 0.1 nM

COC(=O)N[C@H](C(=O)N1C[C@@H](C)C[C@H]1c1nc(-c2ccc(-c3cc(F)c(NC(=O)c4ccc(N5CCN(C(=O)[C@]6(C)CCCN6)C[C@H]5C)nc4)cc3OC(F)(F)F)cc2)c[nH]1)C(C)C [Example 1-27]
Genotype 1a: C (C represents pEC50 between and 9 and about 10, (EC50 between 1 nM and 0.1 nM))

COC(=O)N[C@H](C(=O)N1CC(C)(C)C[C@H]1c1nc(-c2ccc(-c3cc(F)c(NC(=O)c4ccc(N5CCN(C(=O)C6CC6)C[C@H]5C)nc4)cc3C(F)(F)F)cc2)c[nH]1)C(C)C [Example 3-3]
EC50: 0.1 to 1 nM

COC(=O)N[C@H](C(=O)N1C[C@@H](OC)C[C@H]1c1nc(-c2ccc(-c3ccc(C(=O)Nc4ccc(N5CCN(C(=O)C(C)(C)CO)C[C@H]5C)nc4)cc3OC(F)(F)F)cc2)c[nH]1)C1CCOCC1 [Example 22-14]
Genotype 1a: D (D represents pEC50>10 (EC50<0.1 nM))

CCN(CC)C(C(=O)N1C[C@@H](C)C[C@H]1c1nc(-c2ccc(-c3cc(Cl)c(NC(=O)c4ccc(N5C[C@H](C)N(C(=O)NC)C[C@H]5C)nc4)cc3OC(F)(F)F)cc2)c[nH]1)c1ccccc1 (stereo partly shown) [Example 7-12]
EC50: < 0.1 nM

COC(=O)NC(C(=O)N1CC(C)CC1c1nc(-c2ccc(-c3ccc(NC(=O)c4ccc(N5CCN(C(=O)C(C)(C)C)CC5C)nc4)cc3OC(F)(F)F)cc2)c[nH]1)C(C)O (stereo not shown) [Example 13-13]
Genotype 1a: D (D represents pEC50>10 (EC50<0.1 nM))

COC(=O)N1CCN(C(C(=O)N2C[C@@H](C)C[C@H]2c2nc(-c3ccc(-c4cc(Cl)c(NC(=O)c5ccc(N6CCN(C(=O)C(C)(C)C)C[C@H]6C)nc5)cc4OC(F)(F)F)cc3)c[nH]2)c2ccccc2)CC1 (stereo partly shown) [Example 13-4]
EC50: 0.1 to 1 nM

COC(=O)NC(C(=O)N1CC(C)CC1c1nc(-c2ccc(-c3ccc(NC(=O)c4ccc(N5CCN(C(=O)C(C)(C)C)CC5C)nc4)cc3OC(F)(F)F)cc2)c[nH]1)C(C)OC (stereo not shown) [Example 13-14]
Genotype 1a: D (D represents pEC50>10 (EC50<0.1 nM))

COC(=O)N[C@H](C(=O)N1C[C@@H](C)C[C@H]1c1nc(-c2ccc(-c3cc(F)c(NC(=O)c4ccc(N5CCN(C(=O)C6CC67CC7)C[C@H]5C)nc4)cc3Cl)cc2)c[nH]1)C(C)C (stereo partly shown) [Example 1-84]
Genotype 1a: C (C represents pEC50 between and 9 and about 10, (EC50 between 1 nM and 0.1 nM))

COC(=O)N[C@H](C(=O)N1C[C@@H](C)C[C@H]1c1nc(-c2ccc(-c3ccc(C(=O)Nc4ccc(N5C[C@H](C)N(C(=O)NC(C)C)C[C@H]5C)nc4)cc3OC(F)(F)F)cc2)c[nH]1)C(C)C [Example 4-25]
Genotype 1a: C (C represents pEC50 between and 9 and about 10, (EC50 between 1 nM and 0.1 nM))

COC(=O)N[C@H](C(=O)N1C[C@@H](C)C[C@H]1c1nc(-c2ccc(-c3cc(Cl)c(NC(=O)c4ccc(N5CCN(C(=O)C(C)(C)CO)C[C@H]5C)nc4)cc3C(F)(F)F)cc2)c[nH]1)C1CCCCC1 [Example 19-7]
Genotype 1a: B (B represents pEC50 between 8 and 9 (EC50 between 1 and 10 nM))

COC(=O)NC(C(=O)N1CC(OC)CC1c1nc(-c2ccc(-c3cc(F)c(NC(=O)c4ccc(N5CCN(C(=O)C(C)(C)C)CC5C)nc4)cc3OC(F)(F)F)cc2)c[nH]1)C(C)(C)O (stereo not shown) [Example 16-6]
Genotype 1a: D (D represents pEC50>10 (EC50<0.1 nM))

COC(=O)N[C@H](C(=O)N1C[C@@H](C)C[C@H]1c1nc(-c2ccc(-c3cc(Cl)c(NC(=O)c4ccc(N5CCN(C(=O)C(C)(C)C)C[C@H]5C)nc4)cc3C(F)(F)F)cc2)c[nH]1)C1CCCCC1 [Example 19-8]
Genotype 1a: B (B represents pEC50 between 8 and 9 (EC50 between 1 and 10 nM))

COC(=O)NC(C(=O)N1C[C@@H](C)C[C@H]1c1nc(-c2ccc(-c3cc(Cl)c(NC(=O)c4ccc(N5CCN(C(=O)C(C)(C)CO)C[C@H]5C)nc4)cc3C(F)(F)F)cc2)c[nH]1)C1CCS(=O)(=O)CC1 (single isomer, unassigned) [Example 19-1]
Genotype 1a: D (D represents pEC50>10 (EC50<0.1 nM))

COC(=O)N[C@H](C(=O)N1C[C@@H](C)C[C@H]1c1nc(-c2ccc(-c3cc(Cl)c(NC(=O)c4ccc(N5CCN(C(=O)C(C)(C)OC)C[C@H]5C)nc4)cc3OC(F)(F)F)cc2)c[nH]1)C(C)C [Example 12-43]
EC50: < 0.1 nM

COC(=O)N[C@H](C(=O)N1C[C@@H](C)C[C@H]1c1nc(-c2ccc(-c3cc(Cl)c(NC(=O)c4ccc(N5CCN(C(=O)C6(C(F)(F)F)CC6)C[C@H]5C)nc4)cc3OC(F)(F)F)cc2)c[nH]1)C(C)C [Example 1-99]
Genotype 1a: D (D represents pEC50>10 (EC50<0.1 nM))

COC(=O)N[C@H](C(=O)N1C[C@@H](S(C)(=O)=O)C[C@H]1c1nc(-c2ccc(-c3ccc(C(=O)Nc4ccc(N5CCN(C(=O)C(C)(C)C)C[C@H]5C)nc4)cc3OC(F)(F)F)cc2)c[nH]1)C(C)C [Example 6-22]
EC50: 1 to 10 nM

COC(=O)NC(C(=O)N1CC(F)CC1c1nc(-c2ccc(-c3cc(Cl)c(NC(=O)c4ccc(N5CCN(C(=O)C(C)(C)C)CC5C)nc4)cc3OC(F)(F)F)cc2)c[nH]1)C(C)C (stereo not shown) [Example 29-2]
Genotype 1a: C (C represents pEC50 between and 9 and about 10, (EC50 between 1 nM and 0.1 nM))

COC(=O)N[C@H](C(=O)N1C[C@H](OC)C[C@H]1c1nc(-c2ccc(-c3cc(Cl)c(NC(=O)c4ccc(N5CCN(C(=O)C(C)(C)C)C[C@H]5C)nc4)cc3OC(F)(F)F)cc2)c[nH]1)C1CCOCC1 [Example 5-20]
EC50: < 0.1 nM

COC(=O)NC(C(=O)N1C[C@@H](C)C[C@H]1c1nc(-c2ccc(-c3cc(Cl)c(NC(=O)c4ccc(N5CCN(C(=O)C(C)(C)C)C[C@H]5C)nc4)cc3OC(F)(F)F)cc2)c[nH]1)C1CCS(=O)(=O)CC1 (stereo partly shown) [Example 13-36]
EC50: 1 to 10 nM

COC(=O)N[C@H](C(=O)N1C[C@@H](C)C[C@H]1c1nc(-c2ccc(-c3cc(Cl)c(NC(=O)c4ccc(N5CCN(C(=O)C6(C)CC6)C[C@H]5C)nc4)cc3OC(F)(F)F)cc2)c[nH]1)C(C)C [Example 1-80]
Genotype 1a: C (C represents pEC50 between and 9 and about 10, (EC50 between 1 nM and 0.1 nM))
